Laboratory results taken from PubChem BioAssay (NCI).
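Results reflect a 48-hour exposure of cells in 96-well plates to compound at five concentrations. GI50: concentration for 50% inhibition of growth. The concentration for full growth arrest is given as TGI.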

What was measured:
Assay in all cases: growth of human tumour cells (NCI), 48 h
[1] = test system: 786-0 renal
[2] = test system: A549 NSCLC
[3] = test system: ACHN renal
[4] = test system: BT-549 breast
[5] = test system: CCRF-CEM leukemia
[6] = test system: COLO 205 colon
[7] = test system: DU-145 prostate
[8] = test system: EKVX NSCLC
[9] = test system: HCC-2998 colon
[10] = test system: HCT-116 colon
[11] = test system: HCT-15 colon
[12] = test system: HL-60(TB) leukemia
[13] = test system: HOP-92 NSCLC
[14] = test system: HS 578T breast
[15] = test system: HT29 colon
[16] = test system: IGROV1 ovarian
[17] = test system: K-562 leukemia
[18] = test system: KM12 colon
[19] = test system: LOX IMVI melanoma
[20] = test system: M14 melanoma
[21] = test system: MALME-3M melanoma
[22] = test system: MCF7 breast
[23] = test system: MDA-MB-231 breast
[24] = test system: MDA-MB-435
[25] = test system: MDA-N
[26] = test system: NCI-H226 lung
[27] = test system: NCI-H23 lung
[28] = test system: NCI-H460 lung
[29] = test system: NCI-H522 lung
[30] = test system: NCI/ADR-RES ovarian
[31] = test system: OVCAR-3 ovarian
[32] = test system: OVCAR-4 ovarian
[33] = test system: OVCAR-5 ovarian
[34] = test system: OVCAR-8 ovarian
[35] = test system: PC-3 prostate
[36] = test system: RPMI-8226 leukemia
[37] = test system: RXF 393 renal
[38] = test system: SF-268 CNS
[39] = test system: SF-539 CNS
[40] = test system: SK-MEL-28 melanoma
[41] = test system: SK-MEL-5 melanoma
[42] = test system: SK-OV-3 ovarian
[43] = test system: SN12C renal
[44] = test system: SNB-19 CNS
[45] = test system: SNB-75 CNS
[46] = test system: SR leukemia
[47] = test system: T-47D breast
[48] = test system: TK-10 renal
[49] = test system: U251 CNS
[50] = test system: UACC-257 melanoma
[51] = test system: UACC-62 melanoma
[52] = test system: UO-31 renal
[53] = test system: A498 renal
[54] = test system: CAKI-1 renal
[55] = test system: HOP-62 NSCLC
[56] = test system: MOLT-4 leukemia
[57] = test system: SF-295 CNS
[58] = test system: SK-MEL-2 melanoma
[59] = test system: SW-620 colon

C=C(C)[C@]12CC(C)C34OC(/C=C\C=C\CCCCCCCCC)(O[C@@H]1[C@@H]3[C@@H]1O[C@]1(CO)[C@@H](O)[C@]1(O)C(=O)C(C)=C[C@@H]41)O2 (stereo partly drawn)
TGI [1]: 21.5 µM
GI50 [2]: < 0.0001 µM
TGI [2]: 20.9 µM
TGI [3]: 22.8 µM
TGI [4]: 18.5 µM
TGI [5]: > 26.1 µM
TGI [6]: 14.1 µM
TGI [7]: 22.1 µM
TGI [8]: 27.8 µM
GI50 [9]: < 0.0001 µM
TGI [10]: 21 µM
TGI [11]: 25.4 µM
GI50 [12]: < 0.0001 µM
TGI [12]: > 20.5 µM
TGI [13]: 22.4 µM
TGI [14]: 3.97 µM
TGI [15]: 8.26 µM
TGI [16]: 30 µM
GI50 [17]: < 0.0001 µM
TGI [17]: > 35 µM
TGI [18]: 21.7 µM
GI50 [19]: 1.48 µM
TGI [19]: 3.88 µM
TGI [20]: 27.4 µM
GI50 [21]: < 0.0001 µM
TGI [21]: 23.1 µM
TGI [22]: 23.4 µM
TGI [23]: 15.4 µM
GI50 [24]: < 0.0001 µM
TGI [24]: 21.5 µM
GI50 [25]: 0.000167 µM
TGI [25]: 19 µM
TGI [26]: 33.2 µM
TGI [27]: 29.2 µM
GI50 [28]: < 0.0001 µM
TGI [28]: 16 µM
TGI [29]: 30.7 µM
TGI [30]: 45.2 µM
TGI [31]: 16.3 µM
TGI [32]: 22.6 µM
TGI [33]: 41.2 µM
TGI [34]: 31.8 µM
GI50 [35]: < 0.0001 µM
TGI [35]: 12.9 µM
TGI [36]: 17 µM
TGI [37]: 28.6 µM
TGI [38]: 28.5 µM
TGI [39]: 17.2 µM
TGI [40]: 25.6 µM
GI50 [41]: 0.000417 µM
TGI [41]: 24.3 µM
TGI [42]: 35.1 µM
TGI [43]: 7.86 µM
TGI [44]: 30.5 µM
TGI [45]: 22 µM
TGI [46]: 15.8 µM
TGI [47]: 26.5 µM
TGI [48]: 19.1 µM
TGI [49]: 49.9 µM
TGI [50]: 28.5 µM
TGI [51]: 24 µM
TGI [52]: 24.8 µM

CN1CC(C(=O)NC2(C)OC3(O)C4CCCN4C(=O)C(Cc4ccccc4)N3C2=O)C=C2c3cccc4[nH]cc(c34)CC21 (stereo not drawn)
TGI [1]: 45 µM
TGI [53]: 30.9 µM
TGI [2]: > 100 µM
TGI [3]: 55.1 µM
TGI [4]: 43 µM
TGI [54]: 92 µM
TGI [5]: > 100 µM
TGI [6]: 40 µM
TGI [7]: 67.8 µM
TGI [8]: > 100 µM
TGI [10]: 48.7 µM
TGI [11]: 45.9 µM
TGI [12]: 39.1 µM
TGI [55]: 63.2 µM
TGI [13]: 38.6 µM
TGI [14]: 29 µM
TGI [15]: 71.1 µM
TGI [16]: 50.8 µM
TGI [17]: > 100 µM
TGI [18]: 99.6 µM
TGI [19]: 35.9 µM
TGI [20]: 81.4 µM
TGI [21]: 38.6 µM
TGI [22]: > 100 µM
TGI [23]: 45.5 µM
TGI [24]: 50.7 µM
TGI [25]: 55.1 µM
TGI [56]: > 100 µM
TGI [26]: 95.5 µM
TGI [27]: 46.9 µM
TGI [29]: 33.3 µM
TGI [30]: 95.1 µM
TGI [31]: 43.3 µM
TGI [32]: > 100 µM
TGI [33]: 44.9 µM
TGI [34]: 53.7 µM
TGI [35]: 59.6 µM
TGI [36]: > 100 µM
TGI [37]: 40.5 µM
TGI [38]: 29.6 µM
TGI [57]: 57.1 µM
TGI [39]: 39 µM
TGI [58]: 35.1 µM
TGI [40]: 35.2 µM
TGI [41]: 30.6 µM
TGI [42]: > 100 µM
TGI [43]: 43.5 µM
TGI [44]: > 100 µM
TGI [45]: > 100 µM
TGI [46]: 60.7 µM
TGI [59]: > 100 µM
TGI [47]: > 100 µM
TGI [48]: 41.4 µM
TGI [49]: 38.2 µM
TGI [50]: 29.8 µM
TGI [51]: 34.7 µM
TGI [52]: 77.9 µM

CC(C)CC1c2[nH]c3ccccc3c2C[C@H]2C(=O)NC(COC(C)(C)C)C(=O)N12 (stereo partly drawn)
TGI [1]: 98.5 µM
TGI [53]: > 100 µM
TGI [2]: > 100 µM
TGI [3]: 88.4 µM
TGI [4]: 60.9 µM
TGI [54]: 79.5 µM
TGI [6]: 38.8 µM
TGI [7]: > 100 µM
TGI [8]: 71.7 µM
TGI [10]: 37.9 µM
TGI [11]: 80.2 µM
TGI [12]: 53.4 µM
TGI [55]: 79.3 µM
TGI [13]: 74.7 µM
TGI [14]: 37 µM
TGI [15]: 38.3 µM
TGI [16]: 63.1 µM
TGI [17]: 92.7 µM
TGI [18]: 80.2 µM
TGI [19]: 34.7 µM
TGI [20]: 46.7 µM
TGI [21]: 48.2 µM
TGI [22]: > 100 µM
TGI [23]: 38.8 µM
TGI [24]: 39.9 µM
TGI [25]: 51.8 µM
TGI [56]: 57.9 µM
TGI [26]: 93 µM
TGI [27]: 91.3 µM
TGI [29]: 35.4 µM
TGI [30]: 56.7 µM
TGI [31]: 16.3 µM
TGI [32]: > 100 µM
TGI [33]: 54.8 µM
TGI [34]: > 100 µM
TGI [35]: 55.1 µM
TGI [36]: 58 µM
TGI [37]: 41 µM
TGI [38]: 57.5 µM
TGI [57]: 35 µM
TGI [58]: 38.8 µM
TGI [40]: > 100 µM
TGI [41]: 47.4 µM
TGI [42]: > 100 µM
TGI [43]: 47.9 µM
TGI [44]: > 100 µM
TGI [46]: 46.2 µM
TGI [59]: > 100 µM
TGI [47]: 43.4 µM
TGI [48]: 56.3 µM
TGI [49]: 41 µM
TGI [50]: 39.3 µM
TGI [51]: 49.5 µM
TGI [52]: > 100 µM
